Measurements: US11318113B2, “Compounds for the treatment of diseases linked to mitochondrial reactive oxygen species (ROS) production” (OP2 DRUGS, priority 2015, dated 2022)

Legend:
[1] = test system: isolated perfused rat heart; experiment: Global ischaemia/reperfusion of isolated perfused (Langendorff) rat heart; settings: 10 μM AOL pretreatment, 30 min ischaemia
Method: The consequences of 30 minutes' global ischaemia followed by 120 minutes' reperfusion (FIG. 11) on contractility and tissue viability were studied on isolated perfused rat heart pretreated or not (control vehicle) with 10 μM AOL.
All procedures conformed to the UK Animals (Scientific Procedures) Act 1986 and the Guide for the Care and Use of Laboratory Animals published by the National Institutes of Health (NIH Publication No. 85-23. revised 1996). Male Wistar rats (250-300 g) were anesthetized by 3% isoflurane, heparinized and euthanized by a lethal IP injection of pentobarbital (130 mg/kg). Hearts (˜0.95 g of fresh weight) were rapidly harvested and placed into ice cold Krebs-Henseleit buffer containing (in mmol/L): NaCl 118, NaHCO3 25, KCl 4.8, KH2PO4 1.2, MgSO4 1.2, glucose 11 and CaCl2 1.8; gassed with 95% O2/5% CO2 at 37° C. (pH 7.4). Langendorff heart perfusions were performed (Garlid, K. D. et al., 2006. Am. J. Physiol. Heart Circ. Physiol. 291(1):H152-60) and contractility was assessed by continuous measurement of the rate pressure product (RPP) thanks to a balloon placed in the left ventricle and connected to a pressure transducer. Hearts were perfused in a constant flow mode (12 mL/min). […]

Sod2-KO mice = experiment: Sod2-KO mice: lifespan, heart SDH activity, liver Oil Red O staining; type: in vivo, mouse
Source text: Mice deficient in mitochondrial Mn-Superoxide Dismutase (Sod2-KO) on a CD1-background were used. This genetic alteration leads to an adverse phenotype and the death of animals at an average of 8 days old. Mitochondrial superoxide dismutase is a free radical scavenging enzyme which transforms superoxide (highly reactive) into hydrogen peroxide (less reactive), that could then cross mitochondrial membranes and be detoxified by matrix and cytosolic anti-oxidant systems. The aim of this study was to test if AOL could rescue the Sod2-KO phenotype through its activity on IQ superoxide production.
After birth, pups were genotyped (3 day-old) and the litter size was reduced to 6 pups per cage. Animals were then treated (AOL in Kolliphor®—5 mg/kg) or not (Kolliphor® only, noted KOL below). […] Two studies were conducted on two different generations from the same parents: lifespan; and succinate dehydrogenase activity in heart (SDH) and Oil Red O staining in liver. Animals were weighed and injected (intraperitoneal) daily.
Succinate dehydrogenase activity is a marker of superoxide in the mitochondrial matrix. Thus, a lack of SOD2 is associated with a decrease of SDH activity in heart. The aim of this experiment was to test whether or not AOL could restore SDH activity in KO mice.
However, the direct link between superoxide/hydrogen peroxide production and liver lipid accumulation is not established. The aim of the study was to test the potency of AOL to prevent liver lipid accumulation in Sod2-KO mice.
Animals were injected once a day from 3 days old until their death.
In this study, animals were treated daily (5 mg/kg) from day 3 to day 5. Heart and liver were harvested at day 6.

COc1ccc(-c2cc(=S)ss2)cc1 [AOL, 5-(4-methoxyphenyl)-3H-1,2-dithiole-3-thione]
infarcted tissue rescued (TTC staining) ([1]; 120 min reperfusion): about 50%
heart contractility (rate pressure product, RPP) versus control hearts ([1]; after 2 hours of reperfusion): about three times higher
liver lipid droplets density (Oil Red O) (Sod2-KO mice; 5 mg/kg daily day 3 to day 5): decreased
liver total lipid area (Oil Red O) (Sod2-KO mice; 5 mg/kg daily day 3 to day 5): able to restore
SDH activity in heart (Sod2-KO mice; 5 mg/kg daily day 3 to day 5, not restored to WT levels): very slight increase
lifespan extension as compared to untreated mice (Sod2-KO mice; 5 mg/kg ip daily): up to 2 days
median lifespan and maximal lifespan (Sod2-KO mice; 5 mg/kg ip daily): slightly improved
lower body weight and body weight gain of KO mice (Sod2-KO mice; 5 mg/kg ip daily, day 8 to 12): tends to alleviate
